The experiment concerns the target Fibrinogen-D fragment. The experiment is described as follows: Isothermal titration calorimetry (VP-ITC) of Coa peptides with Fg-D fragment. Further details: species or system human. Particulars: one-binding site model, 10 μM Fg-D, read-out: dissociation constant (KD) to Fg-D. The protocol: Binding isotherms for the interaction of Fg-D with Coa peptide sCoa-RI (FIG. 14A), sCoa-R13 (FIG. 14B) and sCoa-RV (FIG. 14C) were generated by titrating the peptides (˜200 μM) into an ITC cell containing 10 μM Fg-D. The top panels show heat difference upon injection of coa peptides, and the lower panels show integrated heat of injections. The data were fitted to a one-binding site model (bottom panels), and binding affinities are expressed as dissociation constants (KD) or the reciprocal of the association constants determined by Microcal Origin software. N represents the binding ratio. To generate more quantitative binding data for the Coa peptide Fg interaction isothermal titration calorimetry and titrated the Coa peptides into a solution containing a fixed concentration of Fg-D fragments was used.
Isothermal titration calorimetry—The interaction between Coa peptides and the soluble, isolated Fibrinogen-D fragment was further characterized by isothermal titration calorimetry (ITC) using a VP-ITC microcalorimeter. The Fibrinogen-D fragment used in these studies was generated by digesting full length Fibrinogen with plasmin for 4 h and fractionating the digestion products by gel filtration chromatography. The ITC cell contained 10 μM Fibrinogen-D fragments and the syringe contained 150-200 μM Coa peptides in TBS (25 mM Tris, 3.0 mM KCl and 140 mM NaCl, pH 7.4). […]
In general terms: In ITC the heat of successive injections is recorded.

Fibrinogen-D fragment, sequence (P02671 130-216 limits assumed): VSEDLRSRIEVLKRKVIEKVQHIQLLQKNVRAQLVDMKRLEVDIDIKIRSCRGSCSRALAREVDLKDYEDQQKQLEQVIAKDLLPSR
Fibrinogen-D fragment, sequence (P02675 164-491 limits assumed, further chain): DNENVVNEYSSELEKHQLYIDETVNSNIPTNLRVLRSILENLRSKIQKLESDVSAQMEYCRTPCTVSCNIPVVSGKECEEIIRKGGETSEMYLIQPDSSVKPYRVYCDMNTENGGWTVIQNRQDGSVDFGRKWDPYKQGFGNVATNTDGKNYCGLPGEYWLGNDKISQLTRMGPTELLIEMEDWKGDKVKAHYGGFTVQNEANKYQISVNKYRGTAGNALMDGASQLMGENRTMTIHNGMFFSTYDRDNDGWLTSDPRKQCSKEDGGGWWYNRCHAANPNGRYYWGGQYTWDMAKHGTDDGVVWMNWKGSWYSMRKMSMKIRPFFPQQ
Fibrinogen-D fragment, sequence (P02679 114-432 limits assumed, further chain): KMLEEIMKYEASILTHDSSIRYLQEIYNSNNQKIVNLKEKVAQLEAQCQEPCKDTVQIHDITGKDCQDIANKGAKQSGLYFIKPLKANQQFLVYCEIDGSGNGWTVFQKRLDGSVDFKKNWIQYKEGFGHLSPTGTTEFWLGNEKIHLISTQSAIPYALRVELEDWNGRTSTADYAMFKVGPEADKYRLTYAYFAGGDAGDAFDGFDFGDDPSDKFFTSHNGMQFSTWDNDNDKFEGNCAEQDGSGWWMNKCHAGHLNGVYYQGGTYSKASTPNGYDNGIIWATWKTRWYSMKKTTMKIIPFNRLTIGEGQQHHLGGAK

As for “sCoa-RI: synthetic peptide, first 27 residues of repeat region, Coa 506-532 (ETNAYNVTTHANGQVSYGARPTYKKPS)”, the Kd turned out to be 88 nM.

Usually Kd stands for the equilibrium constant for the complex coming apart.

(Values after patent publication US11407819B2, “Compositions and use of a fibrinogen binding motif present in EFB and COA for therapeutics and vaccines against Staphylococcus aureus” (priority 2013, dated 2022).)
